# Results published in PubChem BioAssay AID256 (DTP/NCI, 2004).
# Where “and” joins values, the source holds several entries; their conditions need not be identical. Equal values may be shown once. Inconclusive results and toxic doses are left out.
# Tested on: CD2F1 mice, L1210 leukemia ip, survival T/C
# Assay: NCI In Vivo Anticancer Drug Screen. Data for tumor model L1210 Leukemia (intraperitoneal) in CD2F1 (CDF1) mice
# Settings: endpoint: mean survival time, higher = longer survival
# In short: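 In this screen, transplantable tumors were grown in mice given either the compound or its vehicle. Results were expressed as the treated measurement relative to the control measurement.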
# [1] = dose: 100.0 mg/kg/injection, schedule: Q04DX003 (ip), vehicle: saline with Tween-80
# [2] = dose: 200.0 mg/kg/injection, schedule: Q04DX003 (ip), vehicle: saline with Tween-80
# [3] = dose: 400.0 mg/kg/injection, schedule: Q04DX003 (ip), vehicle: saline with Tween-80
# [4] = dose: 75.0 mg/kg/injection, schedule: Q01DX001 (ip), vehicle: other
# [5] = dose: 150.0 mg/kg/injection, schedule: Q01DX001 (ip), vehicle: other
# [6] = dose: 100.0 mg/kg/injection, schedule: Q01DX009 (ip), vehicle: saline with Tween-80
# [7] = dose: 50.0 mg/kg/injection, schedule: Q01DX009 (ip), vehicle: saline with Tween-80
# [8] = dose: 200.0 mg/kg/injection, schedule: Q01DX009 (ip), vehicle: saline with Tween-80
# [9] = dose: 400.0 mg/kg/injection, schedule: Q01DX009 (ip), vehicle: saline with Tween-80
# [10] = dose: 100.0 mg/kg/injection, schedule: Q04DX002 (ip), vehicle: saline with Tween-80
# [11] = dose: 100.0 mg/kg/injection, schedule: Q01DX001 (ip), vehicle: saline with Tween-80
# [12] = dose: 200.0 mg/kg/injection, schedule: Q01DX001 (ip), vehicle: saline with Tween-80
# [13] = dose: 400.0 mg/kg/injection, schedule: Q01DX001 (ip), vehicle: saline with Tween-80
# [14] = dose: 12.5 mg/kg/injection, schedule: Q01DX009 (ip), vehicle: other
# [15] = dose: 25.0 mg/kg/injection, schedule: Q01DX009 (ip), vehicle: other
# [16] = dose: 50.0 mg/kg/injection, schedule: Q01DX009 (ip), vehicle: other
# [17] = dose: 25.0 mg/kg/injection, schedule: Q04DX002 (ip), vehicle: saline with Tween-80
# [18] = dose: 50.0 mg/kg/injection, schedule: Q04DX002 (ip), vehicle: saline with Tween-80
structure (smiles),measurement,setting,value
c1ccc2nc3c4ccccc4c4ccccc4c3nc2c1,T/C,"dose: 100.0 mg/kg/injection, schedule: Q04DX002 (ip), vehicle: Klucel (hydroxypropylcellulose) (HPC)",97 % of control
same,T/C,"dose: 200.0 mg/kg/injection, schedule: Q04DX002 (ip), vehicle: Klucel (hydroxypropylcellulose) (HPC)",97 % of control
same,T/C,"dose: 400.0 mg/kg/injection, schedule: Q04DX002 (ip), vehicle: Klucel (hydroxypropylcellulose) (HPC)",97 % of control
ON(C(=S)Nc1ccccc1)c1ccccc1,T/C,"dose: 100.0 mg/kg/injection, schedule: Q01DX001 (ip), vehicle: saline",93 % of control
same,T/C,"dose: 200.0 mg/kg/injection, schedule: Q01DX001 (ip), vehicle: saline",98 % of control
same,T/C,"dose: 400.0 mg/kg/injection, schedule: Q01DX001 (ip), vehicle: saline",97 % of control
Clc1c(Cl)c(Cl)c(C(c2c(Cl)c(Cl)c(Cl)c(Cl)c2Cl)c2c(Cl)c(Cl)c(Cl)c(Cl)c2Cl)c(Cl)c1Cl,T/C,[1],98 % of control
same,T/C,[2],98 % of control
same,T/C,[3],110 % of control
O=C1CSC(=S)N1/N=C/c1cc(Cl)cc(Cl)c1O,T/C,[4],90 % of control
same,T/C,[5],102 % of control
C=CC(=O)NC(C)(C)CC(C)(C)C,T/C,[6],105 % of control
same,T/C,[1],92 % of control
same,T/C,[2],102 % of control
same,T/C,[3],96 % of control
c1ccc2c3c(ccc2c1)CN1CCCCC1C3 (stereo unspecified),T/C,[7],102 % of control
same,T/C,[6],100 % of control
same,T/C,[8],104 % of control
CCN(CC)C(=O)CS(=O)(=O)c1ccc(C)cc1,T/C,[6],100 % of control
same,T/C,[8],100 % of control
same,T/C,[9],101 % of control
COc1cc(OC)c(C(=O)CCl)c(O)c1Cl,T/C,[6],93 % of control
COC(=O)/C1=C/CCCCCC(=O)C1C(=O)OC (stereo unspecified),T/C,[6],96 % of control
same,T/C,[1],96 % of control
same,T/C,[8],96 % of control
same,T/C,[2],100 % of control
same,T/C,[9],93 % of control
same,T/C,[3],96 % of control
CC(=O)Nc1nc(CCCCc2ccccc2)cc(=O)[nH]1,T/C,"dose: 37.5 mg/kg/injection, schedule: Q01DX001 (ip), vehicle: saline with Tween-80",100 % of control
same,T/C,"dose: 75.0 mg/kg/injection, schedule: Q01DX001 (ip), vehicle: saline with Tween-80",96 % of control
same,T/C,"dose: 150.0 mg/kg/injection, schedule: Q01DX001 (ip), vehicle: saline with Tween-80",94 % of control
CCCN(C)C(=O)N(CCCl)N=O,T/C,"dose: 39.0 mg/kg/injection, schedule: Q01DX001 (ip), vehicle: other",306 % of control
same,T/C,"dose: 62.5 mg/kg/injection, schedule: Q01DX001 (ip), vehicle: other",197 % of control
same,T/C,"dose: 78.0 mg/kg/injection, schedule: Q01DX001 (ip), vehicle: other",448 % of control
same,T/C,"dose: 125.0 mg/kg/injection, schedule: Q01DX001 (ip), vehicle: other",320 % of control
same,T/C,"dose: 250.0 mg/kg/injection, schedule: Q01DX001 (ip), vehicle: other",102 % of control
O=C(O)C1Cc2c([nH]c3ccccc23)C2CCC(=O)N12 (stereo unspecified),T/C,[10],100 % of control
same,T/C,"dose: 200.0 mg/kg/injection, schedule: Q04DX002 (ip), vehicle: saline with Tween-80",108 % of control
same,T/C,"dose: 400.0 mg/kg/injection, schedule: Q04DX002 (ip), vehicle: saline with Tween-80",100 % of control
CCCOC(=O)c1ccc(N)cc1,T/C,[11],102 % of control
same,T/C,[12],104 % of control
same,T/C,[13],103 % of control
CCCCOCN(COCCCC)C12CC3CC(CC(C3)C1)C2,T/C,"dose: 12.5 mg/kg/injection, schedule: Q01DX009 (ip), vehicle: saline with Tween-80",96 % of control and 100 % of control
same,T/C,"dose: 25.0 mg/kg/injection, schedule: Q01DX009 (ip), vehicle: saline with Tween-80",98 % of control
same,T/C,[7],101 % of control and 103 % of control
same,T/C,[6],101 % of control and 105 % of control
same,T/C,[8],113 % of control and 108 % of control
CC1(C)N=C(N)N=C(N)N1c1cccc(OCCOc2ccc(NC(=O)CBr)cc2)c1,T/C,"dose: 6.25 mg/kg/injection, schedule: Q01DX009 (ip), vehicle: other",102 % of control
same,T/C,[14],113 % of control
same,T/C,[15],110 % of control
same,T/C,[16],113 % of control
[N-]=[N+]=NCC(=O)N1c2ccccc2Sc2ccccc21,T/C,[14],95 % of control
same,T/C,[15],103 % of control
same,T/C,[16],98 % of control
same,T/C,"dose: 100.0 mg/kg/injection, schedule: Q01DX009 (ip), vehicle: other",101 % of control
same,T/C,"dose: 200.0 mg/kg/injection, schedule: Q01DX009 (ip), vehicle: other",95 % of control
Cc1ccc(S(=O)(=O)OCC2C3CCC(C3)C2COS(=O)(=O)c2ccc(C)cc2)cc1 (stereo unspecified),T/C,[17],95 % of control
same,T/C,[18],95 % of control
same,T/C,[10],95 % of control and 98 % of control
CCN(CC)CCN(C)N=Nc1ccccc1C(=O)NN,T/C,"dose: 72.0 mg/kg/injection, schedule: Q01DX001 (ip), vehicle: saline",105 % of control
same,T/C,"dose: 145.0 mg/kg/injection, schedule: Q01DX001 (ip), vehicle: saline",100 % of control
C[NH-].[Cl][Pt+2][Cl].[NH-]C1CC1,T/C,"dose: 1.56 mg/kg/injection, schedule: Q04DX003 (ip), vehicle: saline",103 % of control
same,T/C,"dose: 3.12 mg/kg/injection, schedule: Q04DX003 (ip), vehicle: saline with Tween-80",113 % of control
same,T/C,"dose: 3.12 mg/kg/injection, schedule: Q04DX003 (ip), vehicle: saline",103 % of control
same,T/C,"dose: 6.25 mg/kg/injection, schedule: Q04DX003 (ip), vehicle: saline",120 % of control
same,T/C,"dose: 12.5 mg/kg/injection, schedule: Q04DX003 (ip), vehicle: saline with Tween-80",104 % of control
CC(=O)Nc1nc(Cl)nc2c1ncn2Cc1ccccc1,T/C,[4],95 % of control
same,T/C,[5],96 % of control
CCOC(=O)c1ccc(N2C(=O)C=CC2=O)cc1,T/C,"dose: 12.5 mg/kg/injection, schedule: Q01DX009 (ip), vehicle: saline",97 % of control
CN(C)CCCCNc1ccc(NCCCCN(C)C)c2c1C(=O)c1c(O)ccc(O)c1C2=O,T/C,"dose: 25.0 mg/kg/injection, schedule: Q01DX009 (ip), vehicle: saline",102 % of control
same,T/C,"dose: 50.0 mg/kg/injection, schedule: Q01DX009 (ip), vehicle: saline",98 % of control
same,T/C,"dose: 100.0 mg/kg/injection, schedule: Q01DX009 (ip), vehicle: saline",93 % of control
CCOC(=O)N(Cl)Cl,T/C,"dose: 12.5 mg/kg/injection, schedule: Q04DX003 (ip), vehicle: saline",102 % of control
COc1ccc2c(c1)CCc1cnn(C3OC(COC(C)=O)C(OC(C)=O)C(OC(C)=O)C3OC(C)=O)c1-2 (stereo unspecified),T/C,"dose: 12.5 mg/kg/injection, schedule: Q01DX005 (ip), vehicle: other",92 % of control
same,T/C,"dose: 25.0 mg/kg/injection, schedule: Q01DX005 (ip), vehicle: other",90 % of control
same,T/C,"dose: 50.0 mg/kg/injection, schedule: Q01DX005 (ip), vehicle: other",87 % of control
Cc1ccc2c(c1)C(C(F)(F)F)(C(F)(F)F)OC(C(F)(F)F)(C(F)(F)F)N2,T/C,[11],104 % of control
same,T/C,[6],95 % of control
same,T/C,[12],103 % of control
same,T/C,[8],102 % of control
same,T/C,[13],95 % of control
CCCCCCC(/C=N\N=C\c1ccco1)=C\c1ccccc1,T/C,[6],92 % of control
same,T/C,[1],90 % of control
same,T/C,[8],92 % of control
same,T/C,[2],100 % of control
same,T/C,[9],100 % of control
same,T/C,[3],90 % of control
COC(=O)C(CSCc1ccccc1)NC(=O)CCNC(=O)OCc1ccccc1 (stereo unspecified),T/C,"dose: 25.0 mg/kg/injection, schedule: Q01DX009 (ip), vehicle: Klucel (hydroxypropylcellulose) (HPC)",102 % of control
same,T/C,"dose: 50.0 mg/kg/injection, schedule: Q01DX009 (ip), vehicle: Klucel (hydroxypropylcellulose) (HPC)",102 % of control
same,T/C,"dose: 100.0 mg/kg/injection, schedule: Q01DX009 (ip), vehicle: Klucel (hydroxypropylcellulose) (HPC)",96 % of control
same,T/C,"dose: 200.0 mg/kg/injection, schedule: Q01DX009 (ip), vehicle: Klucel (hydroxypropylcellulose) (HPC)",102 % of control
same,T/C,"dose: 400.0 mg/kg/injection, schedule: Q01DX009 (ip), vehicle: Klucel (hydroxypropylcellulose) (HPC)",86 % of control
CCn1c(=N)sc2ccc(C(=O)OC)cc21,T/C,"dose: 12.5 mg/kg/injection, schedule: Q04DX002 (ip), vehicle: saline with Tween-80",101 % of control
same,T/C,[17],96 % of control
same,T/C,[18],90 % of control
same,T/C,[2],88 % of control
